Assay [1] deals with T1, Adrenergic receptor alpha-2 (Rattus norvegicus, UniProt P22086+P19328+P22909).
T1 sequence (P22086 whole entry): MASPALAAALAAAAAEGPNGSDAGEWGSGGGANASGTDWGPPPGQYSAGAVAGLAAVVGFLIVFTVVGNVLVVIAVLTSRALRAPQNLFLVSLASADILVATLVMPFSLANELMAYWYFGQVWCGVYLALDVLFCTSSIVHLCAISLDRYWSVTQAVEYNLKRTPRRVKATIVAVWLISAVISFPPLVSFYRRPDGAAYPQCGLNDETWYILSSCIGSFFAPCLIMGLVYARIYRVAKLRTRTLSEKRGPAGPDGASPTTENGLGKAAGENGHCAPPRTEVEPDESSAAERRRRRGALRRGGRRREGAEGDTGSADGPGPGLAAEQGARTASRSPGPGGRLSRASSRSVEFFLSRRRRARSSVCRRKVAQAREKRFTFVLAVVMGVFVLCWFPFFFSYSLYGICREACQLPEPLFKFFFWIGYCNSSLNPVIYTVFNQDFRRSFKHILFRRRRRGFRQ
T1 sequence (P19328 whole entry): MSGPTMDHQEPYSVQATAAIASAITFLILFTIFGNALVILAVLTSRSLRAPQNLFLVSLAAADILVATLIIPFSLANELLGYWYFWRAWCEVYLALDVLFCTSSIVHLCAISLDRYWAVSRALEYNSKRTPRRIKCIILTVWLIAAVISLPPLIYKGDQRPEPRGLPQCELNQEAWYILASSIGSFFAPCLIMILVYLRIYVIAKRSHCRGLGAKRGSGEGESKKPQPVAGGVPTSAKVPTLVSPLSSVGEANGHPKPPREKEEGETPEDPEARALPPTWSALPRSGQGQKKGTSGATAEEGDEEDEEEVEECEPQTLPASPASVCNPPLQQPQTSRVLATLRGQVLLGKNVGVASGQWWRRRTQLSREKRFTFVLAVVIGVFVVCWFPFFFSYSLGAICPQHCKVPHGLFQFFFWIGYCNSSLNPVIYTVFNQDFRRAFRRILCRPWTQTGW
T1 sequence (P22909 whole entry): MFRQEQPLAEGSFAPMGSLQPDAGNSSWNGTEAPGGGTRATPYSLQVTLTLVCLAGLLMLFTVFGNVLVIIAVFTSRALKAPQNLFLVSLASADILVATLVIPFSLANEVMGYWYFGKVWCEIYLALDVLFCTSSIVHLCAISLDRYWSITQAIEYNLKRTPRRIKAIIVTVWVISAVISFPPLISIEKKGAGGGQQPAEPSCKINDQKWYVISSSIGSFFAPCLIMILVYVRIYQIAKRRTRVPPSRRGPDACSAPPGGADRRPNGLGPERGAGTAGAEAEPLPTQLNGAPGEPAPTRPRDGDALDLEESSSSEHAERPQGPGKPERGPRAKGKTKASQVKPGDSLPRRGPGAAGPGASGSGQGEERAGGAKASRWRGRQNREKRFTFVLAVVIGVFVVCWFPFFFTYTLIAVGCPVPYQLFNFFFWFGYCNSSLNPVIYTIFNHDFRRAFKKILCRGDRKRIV
Kind of assay: Antagonism of the clonidine-induced depression of twitch responses of rat isolated prostatic vas deferens.

Assay [2] has as its target T2, Alpha-1B adrenergic receptor (Homo sapiens, UniProt P35368).
T2 sequence (P35368 whole entry): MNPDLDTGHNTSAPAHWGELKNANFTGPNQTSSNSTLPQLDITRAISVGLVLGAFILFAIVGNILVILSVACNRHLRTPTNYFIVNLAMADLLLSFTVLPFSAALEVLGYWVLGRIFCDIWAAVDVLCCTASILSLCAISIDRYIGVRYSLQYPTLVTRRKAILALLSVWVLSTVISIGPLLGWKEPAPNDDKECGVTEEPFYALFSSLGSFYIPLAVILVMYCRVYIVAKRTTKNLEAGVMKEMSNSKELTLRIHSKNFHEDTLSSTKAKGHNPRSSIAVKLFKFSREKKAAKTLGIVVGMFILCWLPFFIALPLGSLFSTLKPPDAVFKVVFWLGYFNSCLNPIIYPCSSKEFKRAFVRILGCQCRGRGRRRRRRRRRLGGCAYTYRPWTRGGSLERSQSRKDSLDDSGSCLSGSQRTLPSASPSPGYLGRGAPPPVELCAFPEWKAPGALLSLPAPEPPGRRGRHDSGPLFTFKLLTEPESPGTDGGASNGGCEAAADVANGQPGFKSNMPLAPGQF
Briefly: Binding affinity at human cloned Alpha-1B adrenergic receptor in chinese hamster ovary cells by [3H]prazosin displacement. The class given is cell-based, CHO.

Assay [3] concerns the target T3, Alpha-1D adrenergic receptor (Homo sapiens, UniProt P25100).
T3 sequence (P25100 whole entry): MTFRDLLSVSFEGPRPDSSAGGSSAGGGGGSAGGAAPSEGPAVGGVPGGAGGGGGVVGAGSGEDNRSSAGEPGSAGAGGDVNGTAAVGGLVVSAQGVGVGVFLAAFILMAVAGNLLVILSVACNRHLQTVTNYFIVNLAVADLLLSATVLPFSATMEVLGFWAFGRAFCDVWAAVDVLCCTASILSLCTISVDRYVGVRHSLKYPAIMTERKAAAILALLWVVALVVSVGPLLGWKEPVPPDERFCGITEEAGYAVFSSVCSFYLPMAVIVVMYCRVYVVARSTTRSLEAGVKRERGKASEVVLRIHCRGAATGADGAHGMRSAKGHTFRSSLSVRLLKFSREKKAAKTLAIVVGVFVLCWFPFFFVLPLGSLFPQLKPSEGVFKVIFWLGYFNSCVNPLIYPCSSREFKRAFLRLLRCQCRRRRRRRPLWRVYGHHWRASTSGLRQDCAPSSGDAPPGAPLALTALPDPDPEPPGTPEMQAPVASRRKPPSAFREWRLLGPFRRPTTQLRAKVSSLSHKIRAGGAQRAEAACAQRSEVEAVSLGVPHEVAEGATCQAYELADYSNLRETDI
Kind of assay: Binding affinity at human cloned Alpha-1D adrenergic receptor in chinese hamster ovary cells by [3H]prazosin displacement. The class given is cell-based, CHO.

The target in assay [4] is T4, Alpha-1A adrenergic receptor (Homo sapiens, UniProt P35348).
T4 sequence (P35348 whole entry): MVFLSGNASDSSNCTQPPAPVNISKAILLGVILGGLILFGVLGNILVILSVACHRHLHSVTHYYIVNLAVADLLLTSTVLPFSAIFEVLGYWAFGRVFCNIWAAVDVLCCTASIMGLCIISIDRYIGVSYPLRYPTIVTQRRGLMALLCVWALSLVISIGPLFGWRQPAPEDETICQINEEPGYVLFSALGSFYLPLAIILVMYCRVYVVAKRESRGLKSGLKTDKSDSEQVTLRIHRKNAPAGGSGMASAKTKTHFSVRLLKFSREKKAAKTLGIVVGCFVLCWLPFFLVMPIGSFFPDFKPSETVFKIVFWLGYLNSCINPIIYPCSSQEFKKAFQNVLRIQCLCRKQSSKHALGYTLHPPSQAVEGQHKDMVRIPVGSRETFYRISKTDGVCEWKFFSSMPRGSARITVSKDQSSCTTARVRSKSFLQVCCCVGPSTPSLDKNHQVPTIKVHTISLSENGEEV
Kind of assay: Binding affinity at human cloned Alpha-1A adrenergic receptor in chinese hamster ovary cells by [3H]-prazosin displacement. The class given is cell-based, CHO.

Assay [5] has as its target D(2) dopamine receptor (Rattus norvegicus, UniProt P61169). Briefly: Binding affinity at native Dopamine receptor D2 in rat striatum by [3H]spiperone displacement. Type of assay: tissue-based.

Chain of D(2) dopamine receptor (P61169 whole entry): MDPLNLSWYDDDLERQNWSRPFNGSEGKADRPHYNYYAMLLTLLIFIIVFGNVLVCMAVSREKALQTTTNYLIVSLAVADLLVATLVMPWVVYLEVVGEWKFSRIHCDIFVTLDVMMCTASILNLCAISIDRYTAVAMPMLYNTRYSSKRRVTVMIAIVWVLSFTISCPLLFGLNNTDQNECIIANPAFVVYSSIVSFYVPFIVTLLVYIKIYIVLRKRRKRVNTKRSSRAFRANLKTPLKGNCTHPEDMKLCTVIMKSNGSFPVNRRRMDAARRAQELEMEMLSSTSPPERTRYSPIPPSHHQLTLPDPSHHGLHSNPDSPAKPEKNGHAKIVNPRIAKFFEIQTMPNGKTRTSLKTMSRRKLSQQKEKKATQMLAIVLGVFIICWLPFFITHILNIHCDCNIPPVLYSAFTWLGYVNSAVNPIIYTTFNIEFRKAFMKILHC

Consider `COc1cc2nc(N(C)CCCCCCN(C)C(=O)c3ccco3)nc(N)c2cc1OC`, for which, in assay [1], the pA2 (commonly the negative logarithm of the molar antagonist concentration that doubles the agonist concentration needed for the same response) turned out to be 6.66. Further, the values for the Ki in assay [2], in assay [3] and in assay [4] were 0.11 nM, 0.195 nM and 0.166 nM, respectively.
As to `COc1cc2nc(N(C)CCSSCCN(C)C(=O)c3ccco3)nc(N)c2cc1OC`, the pA2 in assay [1] is on record as < 5. Also, the Ki – broadly, a measure of affinity in units of concentration, obtained from inhibition or displacement – is 1.07 nM in assay [2], > 10000 nM in assay [5], 0.724 nM in assay [3] and 0.417 nM in assay [4].
